Data on two compounds can be found in patent US10022341B2, “Methods of preventing neurodegeneration of association cortex in a mammal” (YALE UNIVERSITY, priority 2014, dated 2018).

Molecules are shown by their SMILES. Entries after “also recorded” stand apart in the source; their conditions may differ.

The test system of one data set is aged monkeys (18-28 yrs). The data set is described as follows: Working memory performance after chronic daily treatment. Type of data set: in vivo, monkey.
The subject of data set [1] is p-S214 tau in aged monkey dlPFC. As to the kind of experiment: Immunoblot of p-S214 tau in dlPFC after chronic daily treatment. Type of data set: in vivo. The note with it: 0.001-0.1 mg/kg daily for 6 mos, n=1, pilot study. The procedure: FIG. 18 is a set of immunoblots and a graph illustrating the finding that chronic daily treatment with the α2A-AR agonist, guanfacine, reduces abnormal phosphorylation of tau in the aged monkey dlPFC.
Heat-stable tau was prepared as detailed in Bussière et al., 2003, J Comp Neurol. 463:281. Small blocks of dlPFC were surgically removed and flash-frozen before perfusion of subjects. A piece was placed into ice-cold homogenization buffer (10 mM Tris pH 7.4, 140 mM NaCl, 2 mM EGTA, plus protease and phosphatase inhibitors; 400 μL per 100 mg tissue) and homogenized by sonication. A small fraction was reserved for protein quantification for gel loading. NaCl was added to 250 mM, followed by addition of β-mercaptoethanol (14.3 M, Sigma) to 5% total volume. Samples were vortexed and heated to 100° C. for 15 min, vortexed, then cooled on ice for 30 min. Lysates were cleared by centrifugation at 16,100×g for 10 min at 4° C., and the supernatant used for immunoblotting. Band intensities were normalized by total heat-stable protein, quantified by measurement of major band intensities on a Coomassie stained gel (FIG. 5C).
All samples were run on Invitrogen Novex 4-12% Tris-glycine gels using the Biorad Western blotting system. […] Bands were quantified using Odyssey Software, and statistics performed by Student's T-test, unless stated otherwise.
A general note: Immunoblotting shows a protein as a band on a membrane.

For data set [2], the system named is phospho-COXIV-1 (p-S58) in aged monkey dlPFC. The data set is described as follows: Immunoblot of phospho-COXIV-1 (p-S58) in dlPFC after chronic daily treatment. Type of data set: in vivo. The conditions noted are these: 0.001-0.1 mg/kg daily for 6 mos, n=1, pilot study. The protocol: FIG. 19 is a set of immunoblots and a bar graph illustrating that chronic daily treatment with the α2A-AR agonist, guanfacine, reduces abnormal phosphorylation of COXIV in the aged monkey dlPFC.
All samples were run on Invitrogen Novex 4-12% Tris-glycine gels using the Biorad Western blotting system. Lanes were transferred onto […] Nitrocellulose (Biorad) and incubated overnight in primary antibodies: anti PDE4A (Abcam, ab14607; 1:1000), anti-GAPDH (Advanced Immunochemical, mAb 6C5; 1:5000), anti-PDE4B (Pearson et al., 1985, Proc. Natl. Acad. Sci. USA 82:4531), anti-β-tubulin (T2200, Sigma; 1:5000), anti-PSD95 (EMD Millipore, mAb N68; 1:5000), anti-pSer214 (EMD Millipore, AB6972; 1:1000) for all experiments, except the primary culture experiment, where Abcam 4846 was used due to discontinuation of the previous antibody, anti-pThr231 (Pierce, OPA1-031556; 1:1000), anti-tau (clone 5E2, EMD Millipore, 05-348; 1:500-1:1000). Primary antibodies were labeled using the appropriate Licor IRDye 680 or 800 secondary antibody, and visualized using a Licor Odyssey Infra Red Scanner. Bands were quantified using Odyssey Software, and statistics performed by Student's T-test, unless stated otherwise.

For data set [3] the following is noted: humans; cited from earlier work.
Data set [4] has as its system pS214-tau in mouse primary cortical neurons. The data set is described as follows: pSer214 phosphorylation assay in cultured neurons (immunoblot). The class given is cell-based. The protocol: FIG. 15 is a series of immunoblots illustrating the effect of PDE4 inhibition on phosphorylation of tau at Serine 214. Mouse primary cortical neurons between 7-11 days in vitro were preincubated with 10 μM rolipram or vehicle for 10 min, before being subjected to treatment with varying nM concentrations of forskolin (as indicated). Following this treatment, cells were lysed in 1% SDS with protease and phosphatase inhibitors (Complete Mini, Roche and PhosStop, Roche), and heated to 70° C. to prevent further phosphatase activity. Samples were quantified by BCA assay, and analyzed by imunoblotting. Blots were labeled for pSer214-tau (Abcam, 4846), total tau (EMD Millipore, clone 5E2) and GAPDH (Advanced Immunochemical, mAb 6C5). Bands were quantified using Image J, and total tau signals were normalized by GAPDH. p-Tau signals were then normalized to total tau signals.
Primary cortical neurons were prepared from P1 C57Bl/6 mice. One day prior to neuron production, plates were coated overnight with Poly-D-Lysine solution (Sigma). […]
Assays were performed on primary cortical neurons between 7-11 days in vitro. […] Samples were quantified by BCA assay, and analyzed by immunoblotting. In this instance, band intensity was quantified using ImageJ, and significance assessed by 2 way ANOVA using Graph Pad Prism software.

Regarding `NC(N)=NC(=O)Cc1c(Cl)cccc1Cl` [guanfacine, N-(diaminomethylidene)-2-(2,6-dichlorophenyl)acetamide], the “working memory / cognitive performance compared to baseline” value with aged monkeys (18-28 yrs) (0.001 or 0.01 mg/kg daily for 6 months, n=4 or 5) was “enhances cognitive performance; also recorded: significantly improved working memory performance”; in the data set on aged monkeys (18-28 yrs) (highest dose 0.1 mg/kg daily for 6 months, 0.1 mg/kg), “produced improvement in some monkeys but not in others; also recorded: highly variable and thus not significant”. Also, the “p-S214 tau expression in dlPFC compared to chronic vehicle” value in data set [1] is given as “reduces the expression of p-tau; also recorded: dose-related reduction in phosphorylated tau at the pS214 site; also recorded: dose-related reduction in p-S214 expression”. Moreover, the “phospho-COXIV-1 (p-S58) expression in dlPFC compared to chronic vehicle” value in data set [2] was “reduces the expression of p-tau and phospho-COXIV-1; also recorded: decreasing phospho-COXIV-1; also recorded: decreased phospho-COXIV-1 expression”. Besides, the “safety of long-term treatment” value in data set [3] is “proven safe for long-term treatment”.

As for `COc1ccc(C2CNC(=O)C2)cc1OC1CCCC1` (stereo not shown) [rolipram], the “forskolin-induced increase in pS214-tau” value in data set [4] (10 μM with forskolin, F(1,60)=8.882, p=0.0042) is on record as “significantly increased”. Moreover, the pS214-tau level result in data set [4] (PDE4 inhibition, FIG. 3G) is given as “increased pS214-tau”.
